This is an account of results in patent US8592415B2, “Selective kinase inhibitors” (Reaction Biology Corp., priority 2009, dated 2013).

Experiment [1] deals with autoimmune type I diabetes. As to conditions: NOD mouse; cited from earlier work.
The target of the next experiment is JAK1 (Homo sapiens, UniProt P23458). Description: In vitro JAK kinase enzymatic assay (JAK1). In kind it is biochemical. How it is done: (§1) The JAK3 kinase is recombinant human protein (catalytic domain, amino acids 781-1124 with GST-tag), expressed in insect cells (Invitrogen Catalog PV3855). The substrate is poly-glutamic acid-tyrosin peptide, Poly-(GT) (4:1) (Sigma-Aldrich, catalog P7244). [γ-^33P]-ATP is purchased from Perkin Elmer (catalog NEG602H001MC) (EasyTides). Kinase reaction buffer is 100 mM HEPES (pH 7.5), 20 mM MgCl2, 2 mM EGTA, 0.02% Brij 35. The JAK1 (Invitrogen Catalog PV4774), JAK2 (Invitrogen Catalog PV4210) and TYK2 Invitrogen Catalog PV4790) enzymatic assays are performed in the similar way. JAK1 and JAK2 substrate is Poly-(GT) (4:1), but TYK2 substrate is peptide with sequences of […]. The reaction is carried for 2 hours at room temperature. After the reactions are finished or stopped, portion or all the reaction mixtures are transferred onto filter paper P81 Phosphocellulose paper (Whatman catalog 3698-915) for binding the final radioisotope labeled products. The unreacted phosphate are washed away without interfering with the detection of real phosphorylated products. The final product can be detected by instruments such as scintillation counter, top counter or phosphoimager. The enzymatic assays can also performed in assays described those described in the art [e.g., Ma H et al, Expert Opin. Drug Discov. 3, 607-621 (2008); Olive D M, Expert Rev Proteomics, 1, 327-341 (2004)].
(§2) Signal=Bottom+(Top−Bottom)/(1+10^((Log(IC50)−Log [I])*Hill Slope) Bottom and Top refer to the post and pre-transition baselines, respectively.

The next experiment relates to SZ-4 cells. Nature of the experiment: IL-2 dependent cell proliferation assay (MTT). In kind it is cell-based. As to conditions: Homo sapiens, 72 hr, IL-2, MTT, read-out: IC50, inhibition of proliferation. From the text: The number of surviving cells is directly proportional to the level of the formazan product created.
The target in experiment [2] is JAK2. Description: In vitro JAK kinase enzymatic assay (JAK2). The format is biochemical. The method, then: as §1, with “The” for “The JAK3 kinase is recombinant human protein (catalytic domain, amino acids 781-1124 with GST-tag), expressed in insect cells (Invitrogen Catalog PV3855). The”, “After the reactions are finished or stopped, portion or all the reaction mixtures are transferred onto filter paper P81 Phosphocellulose paper (Whatman catalog 3698-915) for binding the final radioisotope labeled products.” left out, “Discov.” for “Discov. 3, 607-621 (2008); Olive D M, Expert Rev Proteomics, 1, 327-341 (2004)].”
as §2

The target in experiment [3] is JAK2 (Homo sapiens, UniProt O60674). Description: In vitro JAK kinase enzymatic assay (JAK2). In kind it is biochemical. The method, then: as §1, with “The” for “The JAK3 kinase is recombinant human protein (catalytic domain, amino acids 781-1124 with GST-tag), expressed in insect cells (Invitrogen Catalog PV3855). The”, “After the reactions are finished or stopped, portion or all the reaction mixtures are transferred onto filter paper P81 Phosphocellulose paper (Whatman catalog 3698-915) for binding the final radioisotope labeled products.” left out, “Discov.” for “Discov. 3, 607-621 (2008); Olive D M, Expert Rev Proteomics, 1, 327-341 (2004)].”
Sequence of JAK2 (Homo sapiens, UniProt O60674) (O60674 whole entry, looked up, the tested form may be a part): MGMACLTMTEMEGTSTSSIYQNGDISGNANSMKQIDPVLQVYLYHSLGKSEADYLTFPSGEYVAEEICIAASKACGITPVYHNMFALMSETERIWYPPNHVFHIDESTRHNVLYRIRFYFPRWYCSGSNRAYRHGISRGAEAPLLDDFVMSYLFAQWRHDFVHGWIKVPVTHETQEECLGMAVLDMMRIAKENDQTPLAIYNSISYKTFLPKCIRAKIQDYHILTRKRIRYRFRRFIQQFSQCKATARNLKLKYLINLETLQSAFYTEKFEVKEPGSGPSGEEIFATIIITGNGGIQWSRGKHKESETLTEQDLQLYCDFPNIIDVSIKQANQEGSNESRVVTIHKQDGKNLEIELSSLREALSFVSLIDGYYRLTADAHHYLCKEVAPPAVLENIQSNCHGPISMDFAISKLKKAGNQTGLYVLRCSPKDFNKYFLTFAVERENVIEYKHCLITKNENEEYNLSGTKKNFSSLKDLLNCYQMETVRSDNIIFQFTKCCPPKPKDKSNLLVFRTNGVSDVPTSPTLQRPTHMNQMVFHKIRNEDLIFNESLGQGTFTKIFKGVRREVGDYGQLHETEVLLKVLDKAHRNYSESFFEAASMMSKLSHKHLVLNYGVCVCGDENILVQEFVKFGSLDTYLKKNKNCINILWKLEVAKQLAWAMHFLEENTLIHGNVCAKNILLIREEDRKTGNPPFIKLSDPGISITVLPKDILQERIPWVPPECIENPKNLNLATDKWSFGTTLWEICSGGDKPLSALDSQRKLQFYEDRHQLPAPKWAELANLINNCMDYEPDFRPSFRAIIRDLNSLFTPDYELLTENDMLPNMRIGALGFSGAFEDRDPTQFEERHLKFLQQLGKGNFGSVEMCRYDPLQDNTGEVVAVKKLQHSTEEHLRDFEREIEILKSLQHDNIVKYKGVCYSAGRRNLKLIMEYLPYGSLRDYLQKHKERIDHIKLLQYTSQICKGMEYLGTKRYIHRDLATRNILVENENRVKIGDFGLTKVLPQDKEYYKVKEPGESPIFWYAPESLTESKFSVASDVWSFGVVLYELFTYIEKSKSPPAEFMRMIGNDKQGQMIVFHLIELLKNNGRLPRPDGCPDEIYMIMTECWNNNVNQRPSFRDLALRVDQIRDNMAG
as §2

Experiment [4] addresses T1, JAK3 (Homo sapiens (Human), UniProt P52333). Nature of the experiment: In vitro JAK kinase enzymatic assay (JAK3). The format is biochemical. The method, then:
as §1, §2
Target sequence in this assay (P52333 781-1124): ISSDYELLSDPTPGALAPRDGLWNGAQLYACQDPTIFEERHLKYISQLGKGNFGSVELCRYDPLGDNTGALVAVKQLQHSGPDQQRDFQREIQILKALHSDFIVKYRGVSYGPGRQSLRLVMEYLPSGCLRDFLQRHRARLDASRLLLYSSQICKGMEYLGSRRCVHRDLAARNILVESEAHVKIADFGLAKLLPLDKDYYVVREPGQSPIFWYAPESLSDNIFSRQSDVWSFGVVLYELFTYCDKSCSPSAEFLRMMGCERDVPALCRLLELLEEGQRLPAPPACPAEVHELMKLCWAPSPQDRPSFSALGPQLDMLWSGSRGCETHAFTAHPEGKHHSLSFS

In the next experiment the target is TYK2 (Homo sapiens (Human), UniProt P29597). Description: In vitro JAK kinase enzymatic assay (TYK2). The format is biochemical. How it is done: as §1, §2
Sequence of TYK2 (P29597 whole entry): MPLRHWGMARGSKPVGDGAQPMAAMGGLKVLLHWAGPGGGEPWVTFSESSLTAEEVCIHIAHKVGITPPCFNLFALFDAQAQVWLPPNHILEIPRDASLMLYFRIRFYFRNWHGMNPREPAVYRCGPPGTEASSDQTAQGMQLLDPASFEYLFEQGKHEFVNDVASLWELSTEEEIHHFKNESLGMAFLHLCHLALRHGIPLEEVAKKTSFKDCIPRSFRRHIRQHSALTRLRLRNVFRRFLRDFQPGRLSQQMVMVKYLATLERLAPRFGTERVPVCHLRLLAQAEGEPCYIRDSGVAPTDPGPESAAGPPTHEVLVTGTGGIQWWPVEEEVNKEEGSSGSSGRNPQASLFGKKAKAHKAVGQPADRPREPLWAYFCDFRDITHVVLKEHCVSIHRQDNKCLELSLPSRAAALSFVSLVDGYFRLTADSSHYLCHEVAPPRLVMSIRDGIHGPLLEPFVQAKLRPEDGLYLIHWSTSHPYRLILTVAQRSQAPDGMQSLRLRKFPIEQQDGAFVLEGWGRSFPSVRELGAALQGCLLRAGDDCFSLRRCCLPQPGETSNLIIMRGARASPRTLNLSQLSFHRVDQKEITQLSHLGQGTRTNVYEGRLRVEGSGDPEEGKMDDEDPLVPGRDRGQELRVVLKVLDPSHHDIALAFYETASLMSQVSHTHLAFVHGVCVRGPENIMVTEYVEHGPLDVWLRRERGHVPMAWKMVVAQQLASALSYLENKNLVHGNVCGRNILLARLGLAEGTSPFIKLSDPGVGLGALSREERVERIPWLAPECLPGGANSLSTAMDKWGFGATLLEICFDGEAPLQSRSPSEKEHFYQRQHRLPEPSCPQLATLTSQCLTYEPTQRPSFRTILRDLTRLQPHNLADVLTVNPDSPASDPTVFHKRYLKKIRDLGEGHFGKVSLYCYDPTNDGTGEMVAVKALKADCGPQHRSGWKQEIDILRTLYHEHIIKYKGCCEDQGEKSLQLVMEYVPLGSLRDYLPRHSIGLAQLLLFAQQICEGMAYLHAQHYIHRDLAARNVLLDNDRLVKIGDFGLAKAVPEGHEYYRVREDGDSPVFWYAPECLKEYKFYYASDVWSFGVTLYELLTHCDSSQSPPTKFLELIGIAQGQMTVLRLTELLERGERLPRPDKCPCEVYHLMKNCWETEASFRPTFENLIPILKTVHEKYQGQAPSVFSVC
Experiment [5] has as its system collagen-induced arthritis. The conditions noted are these: rat; cited from earlier work.
Experiment [6] deals with adjuvant-induced arthritis. As to conditions: rat; cited from earlier work.
Experiment [7] has as its system myeloid dendritic cells (DCs). As to conditions: cited from earlier work.
The subject of a further experiment is JAK3 phosphorylation. Nature of the experiment: JAK3 phosphorylation detection by immunoprecipitation and Western blot. As to conditions: 0.8 μM compound with IL-2; IL-2 alone more than 12-fold. In kind it is cell-based, human. How it is done: Cell lines: The SZ-4 cell line is derived from a Sézary patient (Abrams, et al., 1991, J Investig Dermatol. 96, 31-37), and the growth of this cell line is IL-2 dependent. The cells are grown in RPMI 1640 medium supplemented with 10% fetal calf serum, 2 mM L-glutamine, penicillin 100 U/ml, streptomycin 100 ug/ml, and 10 I.U/ml IL-2 in a 5% CO2 humidified incubator at 37° C.
Protein and phosphorylation detection by immunoprecipitation and Western Blot: the above cells is used to evaluate the compounds activities of inhibiting JAK/STAT phosphorylations. After the cells are treated as described above, cells are collected and pelleted by centrifuging, cell pellets are then lysed with PI/RIPA lysis buffer (1% NP40, 1% Deoxycholic Acid, 0.1% SDS, 0.15M NaCl, 10 mM Sodium Phosphate, 1 mM PMSF, 2 mM EDTA, 10 mM NaF, 10 mM Napyrophosphate, 0.4 mM Na3VO4, 10 mM Indoacetamide, PH, 8.0) on ice. The lysed cells are centrifuged at 15,000 rpm to remove cell debris, add 5 ul of Anti-Phosphotyrosine, 4G10® Platinum (Upstate Biotechnology, Lake Placid, N.Y.), and incubate for 90 min on ice. Then, the protein A-Sepharose (Invitrogen, Carlsbad, Calif.) is added to precipitate the immune complexes for 1 hr at 4° C. The immunoprecipitates are washed 3× with lysis buffer, and suspended in loading buffer. […]

For experiment [8], the target named is T1, JAK3. As to conditions: cited from earlier work.
Target sequence in this assay (P52333 whole entry): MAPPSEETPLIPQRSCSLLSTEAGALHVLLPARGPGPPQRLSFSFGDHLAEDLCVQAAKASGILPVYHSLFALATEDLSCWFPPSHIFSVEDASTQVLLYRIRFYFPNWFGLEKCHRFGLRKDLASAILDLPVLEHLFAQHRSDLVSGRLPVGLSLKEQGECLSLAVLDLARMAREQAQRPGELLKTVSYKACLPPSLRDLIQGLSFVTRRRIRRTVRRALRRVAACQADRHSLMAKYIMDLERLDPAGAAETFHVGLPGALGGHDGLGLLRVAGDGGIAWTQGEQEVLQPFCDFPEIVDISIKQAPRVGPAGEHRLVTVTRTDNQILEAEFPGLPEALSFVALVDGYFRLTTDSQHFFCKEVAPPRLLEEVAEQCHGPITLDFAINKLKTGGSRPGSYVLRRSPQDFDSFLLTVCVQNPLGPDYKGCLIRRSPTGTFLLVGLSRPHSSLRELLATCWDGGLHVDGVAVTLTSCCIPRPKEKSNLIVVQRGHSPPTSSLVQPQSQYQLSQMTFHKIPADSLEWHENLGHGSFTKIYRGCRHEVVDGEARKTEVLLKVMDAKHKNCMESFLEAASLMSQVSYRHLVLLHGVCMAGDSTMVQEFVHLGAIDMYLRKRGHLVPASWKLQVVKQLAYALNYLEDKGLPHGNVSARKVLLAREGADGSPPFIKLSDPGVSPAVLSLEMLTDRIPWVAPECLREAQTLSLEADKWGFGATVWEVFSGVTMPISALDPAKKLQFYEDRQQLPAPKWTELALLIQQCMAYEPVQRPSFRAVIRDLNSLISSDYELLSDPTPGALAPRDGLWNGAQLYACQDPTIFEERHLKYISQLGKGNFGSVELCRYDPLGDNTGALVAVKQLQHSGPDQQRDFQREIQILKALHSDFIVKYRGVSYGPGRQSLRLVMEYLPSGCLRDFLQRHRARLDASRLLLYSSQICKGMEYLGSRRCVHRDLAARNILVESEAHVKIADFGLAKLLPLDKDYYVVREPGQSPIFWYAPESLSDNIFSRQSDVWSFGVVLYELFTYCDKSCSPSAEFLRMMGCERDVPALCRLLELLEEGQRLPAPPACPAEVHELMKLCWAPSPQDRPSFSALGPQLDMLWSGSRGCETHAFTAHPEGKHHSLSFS
The test system of experiment [9] is amyotrophic lateral sclerosis (ALS). The conditions noted are these: transgenic mouse model of ALS; cited from earlier work.

Consider `COc1cc2ncnc(Nc3ccc(O)cc3)c2cc1OC` [JANEX-1], for which the onset of diabetes result in experiment [1] is “delayed the onset of diabetes”.

Turning to `O=C(CN1CCN(c2ccccc2)CC1)Nc1cccc(-c2cnc3ccccc3n2)c1` [Example 16, 2-(4-phenylpiperazin-1-yl)-N-[3-(quinoxalin-2-yl)phenyl]acetamide], the IC50 is > 20 µM against JAK1; 270 nM in the experiment on SZ-4 cells; 18 µM against JAK2 [2]; > 10 µM against JAK2 [3]; 270 nM against JAK3 [4]; > 20 µM against TYK2.

With `C[C@@H]1CCN(C(=O)CC#N)C[C@@H]1N(C)c1ncnc2[nH]ccc12` [CP-690550], the “effect in collagen-induced arthritis” value in experiment [5] is “therapeutic effects”. The “effect in adjuvant-induced arthritis” value in experiment [6] is on record as “therapeutic effects”.

`COc1cc2ncnc(Nc3ccc(O)c(Br)c3)c2cc1OC` [WHI-P-154]: in experiment [7], the “effect on CD40-induced DC maturation” value was “prevented these effects”.

`N#CCC(=O)Nc1cccc(-c2cnc3ccccc3n2)c1` [Example 8, 2-cyano-N-[3-(quinoxalin-2-yl)phenyl]acetamide]: the IC50 on JAK1 was > 20 µM; at JAK2 [2], 18.1 µM; against JAK2 [3] it was > 10 µM; against JAK3 [4], 136 nM; at TYK2, > 20 µM.

Take `O=C(CCl)Nc1cccc(-c2cnc3ccccc3n2)c1` [Example 1, 2-chloro-N-(3-quinoxalin-2-ylphenyl)acetamide]: the IC50 against JAK1 was > 20 µM; with SZ-4 cells it was 0.3 nM; at JAK2 [2], > 20 µM; at JAK2 [3], > 10 µM; against JAK3 [4], 0.2 nM; against TYK2, > 20 µM. In the experiment on JAK3 phosphorylation, the “JAK3 phosphorylation level increase above background level” value was “about 2 fold”.

With `COc1cc2ncnc(Nc3ccc(O)cc3)c2cc1OC` [WHI-P131], at JAK3 [8], the “JAK3 IC50s” value is recorded as “low μM ranges”. The survival result in [9] is “increased survival”.

For the molecule `O=C(CN1CCC(O)CC1)Nc1cccc(-c2cnc3ccccc3n2)c1` [Example 34, 2-(4-hydroxypiperidin-1-yl)-N-(3-(quinoxalin-2-yl)phenyl)acetamide], the IC50 against JAK1 was > 10 µM; at JAK2 [3], > 10 µM; at JAK3 [4], > 10000 nM; on TYK2, > 10 µM.

Consider `O=C(CCCl)Nc1cccc(-c2cnc3ccccc3n2)c1` [Example 19, 3-chloro-N-[3-(quinoxalin-2-yl)phenyl]propanamide], for which the IC50 on JAK1 is > 50 µM; against JAK2 [3] it was > 50 µM; against JAK3 [4], > 50000 nM; against TYK2, > 50 µM.

As to `O=C(Nc1cccc(-c2cnc3ccccc3n2)c1)C(Cl)Cl` [Example 18, 2,2-dichloro-N-[3-(quinoxalin-2-yl)phenyl]acetamide], the IC50 on JAK1 is > 10 µM; at JAK2 [3], > 10 µM; on JAK3 [4] it was 500 nM; on TYK2, > 10 µM.

As to `O=C(CN1CCCCC1)Nc1cccc(-c2cnc3ccccc3n2)c1` [Example 9, 2-(piperidin-1-yl)-N-[3-(quinoxalin-2-yl)phenyl]acetamide], the IC50 at JAK1 is > 20 µM; on JAK2 [2] it was > 20 µM; against JAK2 [3], > 10 µM; against JAK3 [4], 175 nM; at TYK2 it was > 20 µM.

Regarding `CC(Cl)C(=O)Nc1cccc(-c2cnc3ccccc3n2)c1` (stereo not shown) [Example 21, 2-chloro-N-(3-(quinoxalin-2-yl)phenyl)propanamide], the IC50 was > 50 µM against JAK1, > 50 µM against JAK2 [3], 330 nM on JAK3 [4] and > 50 µM on TYK2.

For the molecule “1-methyl-3-[3-(quinoxalin-2-yl)phenyl]thiourea [Example 11]”, the IC50 at JAK1 is > 50 µM; against JAK2 [3] it was 25.5 µM; against JAK3 [4] it was > 50000 nM; on TYK2 it was > 50 µM.
